# Measurements taken from patent US9029362B2, “Iminothiadiazine dioxide compounds as brace inhibitors, compositions, and their use” (Merck Sharp & Dohme Corp., priority 2009, dated 2015).
# Biological target: purified human autoBACE-2 (Homo sapiens (Human), UniProt Q9Y5Z0)
# Assay: BACE-2 Assay (BACE-HTRF assay)
# Format: biochemical
# Details: not given
# Chain of purified human autoBACE-2 (Q9Y5Z0 63-518): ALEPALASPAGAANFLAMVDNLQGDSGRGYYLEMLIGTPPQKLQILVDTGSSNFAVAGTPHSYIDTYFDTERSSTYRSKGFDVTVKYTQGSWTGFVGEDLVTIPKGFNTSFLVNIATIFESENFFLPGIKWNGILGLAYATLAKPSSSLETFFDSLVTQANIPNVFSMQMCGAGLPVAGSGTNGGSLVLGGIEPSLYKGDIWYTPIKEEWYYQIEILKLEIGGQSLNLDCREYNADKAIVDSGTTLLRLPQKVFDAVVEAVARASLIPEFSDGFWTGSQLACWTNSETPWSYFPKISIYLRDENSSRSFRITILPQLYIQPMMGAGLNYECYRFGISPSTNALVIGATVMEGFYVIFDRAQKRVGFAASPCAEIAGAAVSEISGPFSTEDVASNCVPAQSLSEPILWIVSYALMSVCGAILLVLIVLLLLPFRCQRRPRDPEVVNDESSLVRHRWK
row,Compound,Ki [µM]
1,CN1C(=N)NC(C)(c2cc(NC(=O)N3CCCCC3)ccc2F)CS1(=O)=O (stereo not shown) [Example 160],≥ 0.5

# Same assay, conditions: about values
row,Compound,Ki [µM]
1,CN1C(=N)N[C@](C)(c2cc(NC(=O)c3ccc(S(C)(=O)=O)cn3)cc(F)c2F)CS1(=O)=O [Example 40do],≥ 0.5
2,CN1C(=N)N[C@](C)(c2cc(NC(=O)c3c(F)cncc3C(F)(F)F)cc(F)c2F)CS1(=O)=O [Example 40ex],≥ 0.5

# Second part, the compound after the results:
row,Ki [µM],Compound
1,≥ 0.5,CN1C(=N)N[C@](C)(c2cc(NC(=O)N3CCOCC3)ccc2F)CS1(=O)=O [Example 161a]
2,≥ 0.5,CN1C(=N)N[C@](C)(c2cccc(Nc3ncccc3C#N)n2)CS1(=O)=O [Example 164]

# Biological target: soluble human BACE1 catalytic domain (Homo sapiens (Human), UniProt P56817)
# Sequence (P56817 75-416): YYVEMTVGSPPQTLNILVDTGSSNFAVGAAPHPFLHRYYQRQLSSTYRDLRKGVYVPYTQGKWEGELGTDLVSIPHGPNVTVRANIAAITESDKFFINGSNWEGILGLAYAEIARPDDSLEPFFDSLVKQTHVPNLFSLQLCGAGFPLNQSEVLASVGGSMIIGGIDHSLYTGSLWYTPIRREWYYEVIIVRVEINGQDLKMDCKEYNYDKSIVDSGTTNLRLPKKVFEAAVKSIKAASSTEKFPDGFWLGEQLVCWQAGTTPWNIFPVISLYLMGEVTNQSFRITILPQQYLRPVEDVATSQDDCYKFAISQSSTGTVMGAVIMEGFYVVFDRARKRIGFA
# Assay: BACE1 HTRF FRET Assay
# Format: biochemical
# Details: about values; read-out: Ki value in BACE-1 assay
row,Compound,Ki [µM]
1,CN1C(=N)N[C@](C)(c2cccs2)CS1(=O)=O [Example 19],≥ 5
2,Cc1cnc(C(=O)Nc2cc([C@]3(C)CS(=O)(=O)N(C)C(=N)N3)ccn2)cn1 [Example 40x],≥ 5

# Continued, values first:
row,Ki [µM],Compound
1,≥ 5,CC[C@H]1[C@@](C)(c2cc(F)ccc2F)NC(=N)N(C)S1(=O)=O [Example 98]
2,≥ 5,CC1[C@@](C)(c2cccc(-c3cccc(C#N)c3)c2)NC(=N)N(C)S1(=O)=O (stereo partly shown) [Example 101]
3,≥ 5,CCc1cc2cc(F)c([C@]3(C)CS(=O)(=O)N(C)C(=N)N3)cc2[nH]1 [Example 189]

# Test system: not listed separately
# Assay: Solution stability, Example A (pH 7.4 phosphate buffer/MeOH, LC/MS)
# Format: physicochemical
# Details: pH 7.4, 4° C., 2 days
# Description: A 1.05 mg/mL stock solution (5 mL) of Ex. 45 in MeOH was prepared. From the stock solution was taken out 1.25 mL and diluted to 25 mL with the addition of 23.75 mL of 10 mM phosphate buffer (pH 7.4)/MeOH (70/30 v/v). This new solution was split into three. One solution was incubated at 4° C., another incubated at 25° C. and the third incubated at 40° C. Each solution was analyzed by LC/MS after day 1, day 2 and day 6 and compared to a standard calibration curve for Ex. 45.
# In the following study, the solution stability of the compound of Example 45 was measured and compared to that of Compound Z. The compound of Example 45 is an iminothiadiazine dioxide compound of the invention. Compound Z is the corresponding iminopyrimidinone compound. The structures of the compound of Example 45 and of Compound Z are shown below. Studies were performed in aqueous pH 7.4 buffer containing methanol at 4° C., 25° C. and 40° C.
row,Compound,"Assay (Area %), degradation flag"
1,CN1C(=N)N[C@](C)(c2cc(-c3cccc(C#N)c3)cs2)CC1=O [Compound Z],— ((—) stands for >20% degradation)

# Same assay, conditions: pH 7.4, 4° C., 6 days
row,Compound,"Assay (Area %), degradation flag"
1,CN1C(=N)N[C@](C)(c2cc(-c3cccc(C#N)c3)cs2)CC1=O [Compound Z],— ((—) stands for >20% degradation)

# Same assay, conditions: pH 7.4, 25° C., 2 days
row,Compound,"Assay (Area %), degradation flag"
1,CN1C(=N)N[C@](C)(c2cc(-c3cccc(C#N)c3)cs2)CC1=O [Compound Z],— ((—) stands for >20% degradation)

# Same assay, conditions: pH 7.4, 25° C., 6 days
row,Compound,"Assay (Area %), degradation flag"
1,CN1C(=N)N[C@](C)(c2cc(-c3cccc(C#N)c3)cs2)CC1=O [Compound Z],— ((—) stands for >20% degradation)

# Same assay, conditions: pH 7.4, 40° C., 2 days
row,Compound,"Assay (Area %), degradation flag"
1,CN1C(=N)N[C@](C)(c2cc(-c3cccc(C#N)c3)cs2)CC1=O [Compound Z],— ((—) stands for >20% degradation)

# Same assay, conditions: pH 7.4, 40° C., 6 days
row,Compound,"Assay (Area %), degradation flag"
1,CN1C(=N)N[C@](C)(c2cc(-c3cccc(C#N)c3)cs2)CC1=O [Compound Z],— ((—) stands for >20% degradation)

# Test system: not listed separately
# Assay: Solution stability, Example B (pH 7.4 phosphate buffer/acetonitrile, 25° C., LC/MS)
# Format: physicochemical
# Details: pH 7.4 buffer at 25° C., after 6 days
# Description: Stock solutions of the tested compounds were prepared by dissolving about 3 mg of each compound in 3 mL of acetonitrile. Standards for test compounds were prepared by diluting 1 mL of the stock solution with an additional 4 mL of acetonitrile. These standards were stored at 4° C. Samples were prepared by diluting 1 mL of the stock solution with 4 mL of 50 mM pH 7.4 phosphate buffer. These samples were stored at 25° C. in the absence of light. Standards and samples were analyzed by LC/MS initially and at day 1, day 4, and day 6.
# HPLC Conditions: • Mobile phase A: 10 mM pH 5 ammonium acetate buffer: methanol (90:10) • Mobile phase B: 10 mM pH 5 ammonium acetate buffer: methanol (10:90)
# Column: Zorbax SB-Phenyl 4.6×50 mm, 1.8 μm • Column temperature: 40° C. • Flow: 0.8 mL/min. • Gradient:
# • Detectors: UV at 220 nm and 236 nm
# MS, ES ionization, positive mode, for identification only at final time point.
# The terms reported in the tables below have the following meanings:
# Area % is the integration of peak from HPLC as reported by Waters Empower II software.
# RRT is the relative retention time of new product compared to the standard of the test compound.
# In the following study, the solution stability of the compound of Example 47 was measured and compared to that of Compound Y. The compound of Example 47 is an iminothiadiazine dioxide compound of the invention. […]
row,Compound,hydrolysis product [%]
1,CN1C(=N)N[C@](C)(c2cc(-c3cccc(C#N)c3)cs2)CC1=O [Compound Z],12.45

# Test system: not listed separately
# Assay: Caco-2 Bi-directional Permeability
# Format: in vitro ADME
# Details: human, Caco-2, pH 7.4; apical to basolateral, 2-hr incubation; read-out: Caco-2 AP → BL (nm/s) (Iminothiadiazine Dioxide)
# Description: (§1) The bi-directional permeability with efflux potential of selected compounds of the invention vs. otherwise structurally identical iminopyrimidinones (collectively referred to as test compounds, shown in the table below) were assessed using Caco-2 cell line. The Caco-2 cells were maintained in DMEM (Dulbecco's Modified Eagle Medium) containing 10% fetal bovine serum, 1% non-essential amino acids, 2 mM L-glutamine, and 1% penicillin-streptomycin in an incubator at ˜37° C. in an atmosphere of 5% CO2 and about 90% relative humidity. The cell culture medium was changed three times weekly. Caco-2 cell monolayers were grown on polyethylene terephthalate filters using 24-well BD Falcon™ Cell Culture Insert Plates (0.33 cm^2 insert area, 1 μm pore size; BD BioSciences, Bedford, Mass.). The culture medium of the plate was changed every other day until used for the transport experiment (21-28 days post seeding).
# (§2) The transport buffer (TM) was Hank's balanced salt solution (HBSS) with 10 mM HEPES and 25 mM glucose (pH 7.4) for dosing and TM with 4% bovine serum albumin for receiver (pH 7.4). The bi-directional permeability of the test compounds were tested at concentrations of 1, 10 and 100 μM was measured in triplicate with 2-hr incubation. The cell monolayer integrity was monitored with pre- and post-experimental trans-epithelial electrical resistance and post-experimental Lucifer Yellow (LY) permeability with 1 hr incubation.
# (§3) The apparent permeability, recovery and efflux ratio values were calculated using the following equations:
row,Compound,Papp A→B at 2 h [nm/s]
1,CN1C(=N)N[C@](C)(c2cc(NC(=O)c3ccc(F)cn3)ccc2F)CS1(=O)=O [Example 25],128
2,CN1C(=N)N[C@](C)(c2cc(NC(=O)c3ccc(C(F)(F)F)cn3)ccc2F)CS1(=O)=O [Example 26],89
3,CN1C(=N)N[C@](C)(c2cc(NC(=O)c3ccc(Cl)cn3)ccc2F)CS1(=O)=O [Example 34],118
4,Cc1ccc(C(=O)Nc2ccc(F)c([C@]3(C)CS(=O)(=O)N(C)C(=N)N3)c2)nc1 [Example 35],151
5,Cc1cnc(C(=O)Nc2ccc(F)c([C@]3(C)CS(=O)(=O)N(C)C(=N)N3)c2)cn1 [Example 36],54
6,COc1cnc(C(=O)Nc2ccc(F)c([C@]3(C)CS(=O)(=O)N(C)C(=N)N3)c2)cn1 [Example 40ai],133
7,COc1cnc(C(=O)Nc2cc(F)c(F)c([C@]3(C)CS(=O)(=O)N(C)C(=N)N3)c2)cn1 [Example 40di],136
8,CN1C(=N)N[C@](C)(c2cc(-c3cccc(C#N)c3)cs2)CS1(=O)=O [Example 45],226

# Next, values leading:
row,Papp A→B at 2 h [nm/s],Compound
1,189,CN1C(=N)N[C@](C)(c2cc(-c3ccc(F)c(C#N)c3)cs2)CS1(=O)=O [Example 46]
2,278,CC#Cc1cncc(-c2cc(Cl)c([C@]3(C)CS(=O)(=O)N(C)C(=N)N3)s2)c1 [Example 52]

# Same assay, conditions: human, Caco-2; Papp BL to AP / Papp AP to BL; iminopyrimidinone analog
row,Compound,efflux ratio at 2 h
1,"CN1C(=N)N[C@](C)(c2cc(NC(=O)c3ccc(F)cn3)ccc2F)CC1=O [drawing 739, reference compound]",6.1

# Test system: Caco-2 cells
# Assay: Caco-2 Bi-directional Permeability
# Format: in vitro ADME
# Details: apical to basolateral, 2-hr incubation
# Description: as §1, §2, §3
row,Compound,Caco-2 AP → BL (nm/s) (Iminothiadiazine Dioxide)
1,CN1C(=N)N[C@](C)(c2c(F)ccc(NC(=O)c3ccc(F)cn3)c2F)CS1(=O)=O [Example 173],126

# Same assay, conditions: apical to basolateral, 2-hr incubation; iminopyrimidinone analog
row,Compound,Caco-2 AP → BL (nm/s) (Iminopyrimidinone)
1,"CN1C(=N)N[C@](C)(c2cc(NC(=O)c3ccc(Cl)cn3)ccc2F)CC1=O [drawing 727, reference compound]",0
2,"CN1C(=N)N[C@](C)(c2cc(NC(=O)c3ccc(C(F)(F)F)cn3)ccc2F)CC1=O [drawing 729, reference compound]",17
3,"CN1C(=N)N[C@](C)(c2cc(NC(=O)c3ccc(F)cn3)ccc2F)CC1=O [drawing 731, reference compound]",22
4,"COc1cnc(C(=O)Nc2cc(F)c(F)c([C@]3(C)CC(=O)N(C)C(=N)N3)c2)cn1 [drawing 735, reference compound]",65
5,"CN1C(=N)N[C@](C)(c2cc(NC(=O)c3ccc(F)cn3)ccc2F)CC1=O [drawing 739, reference compound]",25
6,"CN1C(=N)N[C@](C)(c2cc(-c3cccc(C#N)c3)cs2)CC1=O [drawing 741, reference compound]",174
7,"CC#Cc1cncc(-c2cc(Cl)c([C@]3(C)CC(=O)N(C)C(=N)N3)s2)c1 [drawing 745, reference compound]",153
8,Cc1cnc(C(=O)Nc2ccc(F)c([C@]3(C)CC(=O)N(C)C(=N)N3)c2)cn1 [reference compound],11
9,Cc1ccc(C(=O)Nc2ccc(F)c([C@]3(C)CC(=O)N(C)C(=N)N3)c2)nc1 [reference compound],0
10,CN1C(=N)N[C@](C)(c2cc(-c3ccc(F)c(C#N)c3)cs2)CC1=O [reference compound],136

# Test system: rat cortex Aβ40
# Assay: Cortical Aβ40 in rats after oral dose (Luminex immunoassay)
# Format: in vivo
# Details: 3 h after a 10 mg/kg oral dose, relative to vehicle cohort
# Description: Male CD rats (˜100 g; Crl:CD(SD); Charles River Laboratories, Kingston, N.Y.) were group housed and acclimated to the vivarium for 5-7 days prior to use in a study. Compounds were formulated in 20% hydroxypropyl-β-cyclodextrin and administered orally with a dosing volume of 5 ml/kg for rats. Three h after drug administration, rats were euthanized with excess CO2. The brain was removed from the skull and immediately frozen on dry ice. All tissues were stored at −70° C. until Aβ quantification.
# Ab585 was labeled with biotin (b-Ab585) by first dialyzing the antibody sample extensively versus PBS (pH 7.8) to remove impurities, followed by dilution to between 1 and 2 mg/mL protein concentration. EZ-Link Sulfo-NHS-LC-Biotin (Pierce) was dissolved in PBS (pH 7.8) at a concentration of 1 mg/mL immediately prior to use. Ab585 was labeled with EZ-Link Sulfo-NHS-LC-biotin using a 10:1 biotin:antibody ratio by incubation at room temperature for 1 hour. The labeling reaction was quenched by addition of 1.0 M glycine to a final concentration of 0.1 M followed by 10 minute incubation at room temperature. Glycine was removed by extensive dialysis versus PBS.
# The antibody was coupled to the beads using the Bio-Plex Amine Coupling Kit (Bio-Rad) as per the manufacturer's recommendations.
# Rat brains were thawed briefly at 37° C. and both mid- and hindbrain regions were removed. The remaining material, consisting primarily of cortex (−800 mg) was carried through the guanidine extraction procedure. Cortices were added to a 2 ml BioPur tube (Eppendorf) along with a 6.35 mm chrome-coated steel ball and 1.0 ml of sucrose homogenization buffer (20 mM HEPES [pH 7.5], 50 mM KCl, 50 mM sucrose, 2 mM EDTA, 2 mM EGTA supplemented with complete protease inhibitors [Roche, EDTA-free]). Samples were then homogenized by agitation for 1.5 min at 30 cylces/sec in a MM300 tissue mixer (Retsch®). The resulting cortical homogenate was extracted with guanidine-HCl by mixing 67 μl of homogenate with 133 μl of 5 M Guanidine HCl, 50 mM Tris HCl (pH 8.0). To maximize the efficiency of Aβ extraction, samples were vortexed and then sonicated for 2 minutes in an ice bath using an Ultrasonics XL cup horn sonicator at a power setting of 8 (Heat Systems, Inc.). Insoluble material was removed by ultracentrifugation using a using a TLA-55 rotor in a TL-100 benchtop centrifuge (Beckman) at 100,000×g for 30 minutes. The resulting supernatant was then either diluted 1:10 in 5 M guanidine HCl, 0.05 M Tris HCl (pH 8.0) for protein analysis (BCA protein assay, Pierce Biochemicals) or assayed neat for Aβ340 levels. The Luminex rodent A1340 assay was performed as follows. First, 96 well filter binding plates (Millipore, catalogue #MSBVN12) were wetted with 100 μl of 1×LAβ40 buffer (0.05 M HEPES [pH 7.5], 0.2% BSA, 0.2% Tween-20, 0.15 M NaCl) by vacuum filtration on a Millipore 96-well manifold. […] Guanidine HCl was added to synthetic rodent Aβ40 standards in order to control for the effect of guanidine in brain extracts on the assay performance. Ten microliters of cortical extract, rodent Aβ40 standards or cortical extract from amyloid precursor protein knockout mice (to define background immunoreactivity) was added to each well. Plates were covered and incubated overnight at 4° C. Following the incubation, wells were cleared by vacuum and washed twice with 100 μl of 1×LAβ40 buffer on a Millipore manifold. Phycoerythrin-conjugated streptavidin (PE-strepavidin, BioRad) for detection of bound b-Ab585 was diluted 100-fold in 1×LA340 buffer and 50 μl was added to each well and incubated for 1 hour at room temperature with shaking.
row,Compound,Change in rat cortex Aβ40 (Iminothiadiazine Dioxide) [%]
1,CN1C(=N)N[C@](C)(c2cc(NC(=O)c3ccc(F)cn3)ccc2F)CS1(=O)=O [Example 25],−49
2,CN1C(=N)N[C@](C)(c2cc(NC(=O)c3ccc(C(F)(F)F)cn3)ccc2F)CS1(=O)=O [Example 26],−33
3,CN1C(=N)N[C@](C)(c2cc(NC(=O)c3ccc(Cl)cn3)ccc2F)CS1(=O)=O [Example 34],−51
4,Cc1cnc(C(=O)Nc2ccc(F)c([C@]3(C)CS(=O)(=O)N(C)C(=N)N3)c2)cn1 [Example 36],−25
5,COc1cnc(C(=O)Nc2ccc(F)c([C@]3(C)CS(=O)(=O)N(C)C(=N)N3)c2)cn1 [Example 40ai],−51
6,COc1cnc(C(=O)Nc2cc(F)c(F)c([C@]3(C)CS(=O)(=O)N(C)C(=N)N3)c2)cn1 [Example 40di],−38
7,CN1C(=N)N[C@](C)(c2c(F)ccc(NC(=O)c3ccc(F)cn3)c2F)CS1(=O)=O [Example 173],−27

# Same assay, conditions: 3 h after a 10 mg/kg oral dose, relative to vehicle cohort, iminopyrimidinone analog
row,Compound,Change in rat cortex Aβ40 (Iminopyrimidinone)
1,"CN1C(=N)N[C@](C)(c2cc(NC(=O)c3ccc(Cl)cn3)ccc2F)CC1=O [drawing 705, reference compound]",−19%
2,"CN1C(=N)N[C@](C)(c2cc(NC(=O)c3ccc(C(F)(F)F)cn3)ccc2F)CC1=O [drawing 707, reference compound]",0%
3,"CN1C(=N)N[C@](C)(c2cc(NC(=O)c3ccc(F)cn3)ccc2F)CC1=O [drawing 709, reference compound]",−11%
4,"COc1cnc(C(=O)Nc2cc(F)c(F)c([C@]3(C)CC(=O)N(C)C(=N)N3)c2)cn1 [drawing 713, reference compound]",+5%
5,"CN1C(=N)N[C@](C)(c2cc(NC(=O)c3ccc(F)cn3)ccc2F)CC1=O [drawing 717, reference compound]",−3%
6,"CN1C(=N)N[C@](C)(c2cc(-c3cccc(C#N)c3)cs2)CC1=O [drawing 719, reference compound]",−5%
